{"source": "ChEMBL document CHEMBL5154672", "about": "“Design and synthesis of HDAC inhibitors to enhance the therapeutic effect of diffuse large B-cell lymphoma by improving metabolic stability and pharmacokinetic characteristics” (Eur J Med Chem, 2022)", "key": {"[1]": {"assay": "Toxicity against CB.17 SCID mouse xenografted with human TMD8 cells assessed as body weight loss at 50 to 100 mg/kg/day, po for 21 consecutive days", "type": "organism-based", "conditions": "in vivo, 504 h, dose 50-100 mg/kg/day, time 21 day"}, "[2]": {"assay": "AUC (0 to infinity) in ICR mouse at 2 mg/kg, iv measured upto 24 hrs by LC-MS/MS analysis", "type": "ADME, organism-based", "set-up": "time < 24 hrs, dose 2 mg/kg, route iv", "conditions": "in vivo"}, "[3]": {"assay": "Aqueous solubility of the compound", "type": "physicochemical", "conditions": "aqueous medium"}, "TMD8": {"test_system": "TMD8", "assay": "In vivo antitumor activity against TMD8 cells xenografted in CB.17 SCID mouse assessed as tumor growth inhibition at 100 mg/kg/day, po for 21 consecutive days measured on day 21 by Vernier caliper relative to control", "type": "functional, Homo sapiens", "conditions": "TMD8, 504 h, time 21 day, read-out: TGI"}, "[4]": {"assay": "Cmax in ICR mouse at 10 mg/kg, po measured upto 24 hrs by LC-MS/MS analysis", "type": "ADME, organism-based", "set-up": "dose 10 mg/kg, time < 24 hrs, route po", "conditions": "in vivo"}, "[5]": {"assay": "Cmax in ICR mouse at 100 mg/kg, po measured upto 24 hrs by LC-MS/MS analysis", "type": "ADME, organism-based", "set-up": "time < 24 hrs, dose 100 mg/kg, route po", "conditions": "in vivo"}, "[6]": {"assay": "Half life in ICR mouse at 2 mg/kg, iv measured upto 24 hrs by LC-MS/MS analysis", "type": "ADME, organism-based", "conditions": "in vivo"}, "[7]": {"assay": "Half life in ICR mouse at 10 mg/kg, po measured upto 24 hrs by LC-MS/MS analysis", "type": "ADME, organism-based", "conditions": "in vivo"}, "[8]": {"assay": "Half life in ICR mouse at 100 mg/kg, po measured upto 24 hrs by LC-MS/MS analysis", "type": "ADME, organism-based", "conditions": "in vivo"}, "[9]": {"assay": "AUC (0 to infinity) in ICR mouse at 10 mg/kg, po measured upto 24 hrs by LC-MS/MS analysis", "type": "ADME, organism-based", "set-up": "time < 24 hrs, dose 10 mg/kg, route po", "conditions": "in vivo"}, "[10]": {"assay": "AUC (0 to infinity) in ICR mouse at 100 mg/kg, po measured upto 24 hrs by LC-MS/MS analysis", "type": "ADME, organism-based", "set-up": "dose 100 mg/kg, time < 24 hrs, route po", "conditions": "in vivo"}, "[11]": {"assay": "MRT in ICR mouse at 2 mg/kg, iv measured upto 24 hrs by LC-MS/MS analysis", "type": "ADME, organism-based", "conditions": "in vivo"}, "[12]": {"assay": "MRT in ICR mouse at 10 mg/kg, po measured upto 24 hrs by LC-MS/MS analysis", "type": "ADME, organism-based", "conditions": "in vivo"}, "[13]": {"assay": "MRT in ICR mouse at 100 mg/kg, po measured upto 24 hrs by LC-MS/MS analysis", "type": "ADME, organism-based", "conditions": "in vivo"}, "[14]": {"assay": "Clearance in ICR mouse at 2 mg/kg, iv measured upto 24 hrs by LC-MS/MS analysis", "type": "ADME, organism-based", "conditions": "in vivo"}, "[15]": {"assay": "Oral bioavailability in ICR mouse at 10 mg/kg measured upto 24 hrs by LC-MS/MS analysis", "type": "ADME, organism-based", "conditions": "in vivo"}, "[16]": {"assay": "Oral bioavailability in ICR mouse at 100 mg/kg measured upto 24 hrs by LC-MS/MS analysis", "type": "ADME, organism-based", "conditions": "in vivo"}, "[17]": {"assay": "Cmax in monkey plasma at 10 mg/kg, po measured upto 24 hrs by LC-MS/MS analysis", "type": "ADME, organism-based, Macaca fascicularis", "set-up": "time < 24 hrs, dose 10 mg/kg, route po", "conditions": "cynomolgus monkey"}, "[18]": {"assay": "Cmax in dog plasma at 10 mg/kg, po measured upto 24 hrs by LC-MS/MS analysis", "type": "ADME, organism-based, Canis lupus familiaris", "set-up": "time < 24 hrs, dose 10 mg/kg, route po"}, "[19]": {"assay": "Half life in monkey plasma at 1 mg/kg, iv measured upto 24 hrs by LC-MS/MS analysis", "type": "ADME, organism-based, Macaca fascicularis", "conditions": "cynomolgus monkey"}, "[20]": {"assay": "Half life in monkey plasma at 10 mg/kg, po measured upto 24 hrs by LC-MS/MS analysis", "type": "ADME, organism-based, Macaca fascicularis", "conditions": "cynomolgus monkey"}, "[21]": {"assay": "Half life in dog plasma at 1 mg/kg, iv measured upto 24 hrs by LC-MS/MS analysis", "type": "ADME, organism-based, Canis lupus familiaris"}, "[22]": {"assay": "Half life in dog plasma at 10 mg/kg, po measured upto 24 hrs by LC-MS/MS analysis", "type": "ADME, organism-based, Canis lupus familiaris"}, "[23]": {"assay": "AUC (0 to infinity) in monkey plasma at 1 mg/kg, iv measured upto 24 hrs by LC-MS/MS analysis", "type": "ADME, organism-based, Macaca fascicularis", "set-up": "time < 24 hrs, dose 1 mg/kg, route iv", "conditions": "cynomolgus monkey"}, "[24]": {"assay": "AUC (0 to infinity) in monkey plasma at 10 mg/kg, po measured upto 24 hrs by LC-MS/MS analysis", "type": "ADME, organism-based, Macaca fascicularis", "set-up": "time < 24 hrs, dose 10 mg/kg, route po", "conditions": "cynomolgus monkey"}, "[25]": {"assay": "AUC (0 to infinity) in dog plasma at 1 mg/kg, iv measured upto 24 hrs by LC-MS/MS analysis", "type": "ADME, organism-based, Canis lupus familiaris", "set-up": "dose 1 mg/kg, time < 24 hrs, route iv"}, "[26]": {"assay": "AUC (0 to infinity) in dog plasma at 10 mg/kg, po measured upto 24 hrs by LC-MS/MS analysis", "type": "ADME, organism-based, Canis lupus familiaris", "set-up": "time < 24 hrs, dose 10 mg/kg, route po"}, "[27]": {"assay": "MRT in monkey plasma at 1 mg/kg, iv measured upto 24 hrs by LC-MS/MS analysis", "type": "ADME, organism-based, Macaca fascicularis", "conditions": "cynomolgus monkey"}, "[28]": {"assay": "MRT in monkey plasma at 10 mg/kg, po measured upto 24 hrs by LC-MS/MS analysis", "type": "ADME, organism-based, Macaca fascicularis", "conditions": "cynomolgus monkey"}, "[29]": {"assay": "MRT in dog plasma at 1 mg/kg, iv measured upto 24 hrs by LC-MS/MS analysis", "type": "ADME, organism-based, Canis lupus familiaris"}, "[30]": {"assay": "MRT in dog plasma at 10 mg/kg, po measured upto 24 hrs by LC-MS/MS analysis", "type": "ADME, organism-based, Canis lupus familiaris"}, "[31]": {"assay": "Clearance in monkey plasma at 1 mg/kg, iv measured upto 24 hrs by LC-MS/MS analysis", "type": "ADME, organism-based, Macaca fascicularis", "conditions": "cynomolgus monkey, in vivo"}, "[32]": {"assay": "Clearance in dog plasma at 1 mg/kg, iv measured upto 24 hrs by LC-MS/MS analysis", "type": "ADME, organism-based, Canis lupus familiaris", "conditions": "in vivo"}, "[33]": {"assay": "Volume of distribution at steady state in monkey plasma at 1 mg/kg, iv measured upto 24 hrs by LC-MS/MS analysis", "type": "ADME, organism-based, Macaca fascicularis", "conditions": "cynomolgus monkey, read-out: Vdss"}, "[34]": {"assay": "Volume of distribution at steady state in dog plasma at 1 mg/kg, iv measured upto 24 hrs by LC-MS/MS analysis", "type": "ADME, organism-based, Canis lupus familiaris", "conditions": "read-out: Vdss"}, "[35]": {"assay": "Oral bioavailability in monkey plasma at 10 mg/kg measured upto 24 hrs by LC-MS/MS analysis", "type": "ADME, organism-based, Macaca fascicularis", "conditions": "cynomolgus monkey"}, "[36]": {"assay": "Oral bioavailability in dog plasma at 10 mg/kg measured upto 24 hrs by LC-MS/MS analysis", "type": "ADME, organism-based, Canis lupus familiaris"}, "[37]": {"assay": "Toxicity against CB.17 SCID mouse xenografted with human TMD8 cells assessed as effect on heart at 100 mg/kg/day, po for 21 consecutive days by H and E staining method", "type": "organism-based", "conditions": "in vivo, 504 h, time 21 day"}, "[38]": {"assay": "Toxicity against CB.17 SCID mouse xenografted with human TMD8 cells assessed as effect on liver at 100 mg/kg/day, po for 21 consecutive days by H and E staining method", "type": "organism-based", "conditions": "in vivo, 504 h, time 21 day"}, "[39]": {"assay": "Toxicity against CB.17 SCID mouse xenografted with human TMD8 cells assessed as effect on lung at 100 mg/kg/day, po for 21 consecutive days by H and E staining method", "type": "organism-based", "conditions": "in vivo, 504 h, time 21 day"}, "[40]": {"assay": "Toxicity against CB.17 SCID mouse xenografted with human TMD8 cells assessed as effect on kidney at 100 mg/kg/day, po for 21 consecutive days by H and E staining method", "type": "organism-based", "conditions": "in vivo, 504 h, time 21 day"}, "[41]": {"assay": "Toxicity against CB.17 SCID mouse xenografted with human TMD8 cells assessed as effect on spleen at 100 mg/kg/day, po for 21 consecutive days by H and E staining method", "type": "organism-based", "conditions": "in vivo, 504 h, time 21 day"}}, "data": [{"smiles": "Cl.Nc1ccccc1NC(=O)c1ccc(CN2CCC/C(=C\\c3ccccn3)C2=O)cc1", "values": [{"measurement": "Activity", "setting": "[1]", "result": "Non-Toxic"}, {"measurement": "AUC(0-inf)", "setting": "[2]", "result": 1250, "unit": "ng·h/mL"}, {"measurement": "solubility", "setting": "[3]", "result": "> 100", "unit": "mg/mL"}, {"measurement": "inhibition in vivo at 100 mg/kg/day", "setting": "TMD8", "result": 77, "unit": "%"}, {"measurement": "Cmax", "setting": "[4]", "result": 3960, "unit": "ng/mL"}, {"measurement": "Cmax", "setting": "[5]", "result": 58300, "unit": "ng/mL"}, {"measurement": "half-life", "setting": "[6]", "result": 0.427, "unit": "h"}, {"measurement": "half-life", "setting": "[7]", "result": 1.31, "unit": "h"}, {"measurement": "half-life", "setting": "[8]", "result": 1.63, "unit": "h"}, {"measurement": "AUC(0-inf)", "setting": "[9]", "result": 2670, "unit": "ng·h/mL"}, {"measurement": "AUC(0-inf)", "setting": "[10]", "result": 57200, "unit": "ng·h/mL"}, {"measurement": "MRT", "setting": "[11]", "result": 0.402, "unit": "h"}, {"measurement": "MRT", "setting": "[12]", "result": 0.919, "unit": "h"}, {"measurement": "MRT", "setting": "[13]", "result": 0.897, "unit": "h"}, {"measurement": "clearance", "setting": "[14]", "result": 27.2, "unit": "mL/min/kg"}, {"measurement": "bioavailability", "setting": "[15]", "result": 45.6, "unit": "%"}, {"measurement": "bioavailability", "setting": "[16]", "result": 91.8, "unit": "%"}, {"measurement": "Cmax", "setting": "[17]", "result": 8520, "unit": "ng/mL"}, {"measurement": "Cmax", "setting": "[18]", "result": 4740, "unit": "ng/mL"}, {"measurement": "half-life", "setting": "[19]", "result": 4.31, "unit": "h"}, {"measurement": "half-life", "setting": "[20]", "result": 9.14, "unit": "h"}, {"measurement": "half-life", "setting": "[21]", "result": 1.65, "unit": "h"}, {"measurement": "half-life", "setting": "[22]", "result": 1.51, "unit": "h"}, {"measurement": "AUC(0-inf)", "setting": "[23]", "result": 15700, "unit": "ng·h/mL"}, {"measurement": "AUC(0-inf)", "setting": "[24]", "result": 53200, "unit": "ng·h/mL"}, {"measurement": "AUC(0-inf)", "setting": "[25]", "result": 2550, "unit": "ng·h/mL"}, {"measurement": "AUC(0-inf)", "setting": "[26]", "result": 15100, "unit": "ng·h/mL"}, {"measurement": "MRT", "setting": "[27]", "result": 3.41, "unit": "h"}, {"measurement": "MRT", "setting": "[28]", "result": 8.28, "unit": "h"}, {"measurement": "MRT", "setting": "[29]", "result": 2.26, "unit": "h"}, {"measurement": "MRT", "setting": "[30]", "result": 2.71, "unit": "h"}, {"measurement": "clearance", "setting": "[31]", "result": 1.35, "unit": "mL/min/kg"}, {"measurement": "clearance", "setting": "[32]", "result": 6.72, "unit": "mL/min/kg"}, {"measurement": "Vd", "setting": "[33]", "result": 0.34, "unit": "L/kg"}, {"measurement": "Vd", "setting": "[34]", "result": 0.55, "unit": "L/kg"}, {"measurement": "bioavailability", "setting": "[35]", "result": 27.6, "unit": "%"}, {"measurement": "bioavailability", "setting": "[36]", "result": 58.9, "unit": "%"}, {"measurement": "Activity", "setting": "[37]", "result": "Non-Toxic"}, {"measurement": "Activity", "setting": "[38]", "result": "Non-Toxic"}, {"measurement": "Activity", "setting": "[39]", "result": "Non-Toxic"}, {"measurement": "Activity", "setting": "[40]", "result": "Non-Toxic"}, {"measurement": "Activity", "setting": "[41]", "result": "Non-Toxic"}]}]}
